Test results reported in patent publication US9408853B2, “Iridium/rhodium anti-cancer compounds” (University of Warwick, priority 2010, dated 2016).
Where “and” joins values, the source holds several entries; their conditions need not be identical. Equal values may be shown once.

Assays:
[1] = tested on: 9-ethylguanine (9-EtG); assay: Interactions with nucleobases: 9-EtG adduct formation (1H NMR); format: binding; conditions: 1 mM, 1 mol equiv 9-EtG (ZL33A: 2 mol equiv), D2O, 310 K
Summary of the method: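 Complexes (1 mM, equilibrium mixture with their aqua adducts) in 5% MeOD-d4/95% D2O mixed with 1–2 mol equiv 9-EtG in D2O. Adduct formation followed by 1H NMR at 310 K over various time intervals.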

[2] = tested on: 9-ethyladenine (9-EtA); assay: Interactions with nucleobases: 9-EtA adduct formation (1H NMR); format: binding; conditions: 10 min; 1 mM, 1 mol equiv 9-EtA, D2O, 310 K
Description: Interactions with Nucleobases. The reaction of ZL01, ZL03, ZL04, ZL07, ZL25, ZL33, ZL37, ZL38, ZL43 and ZL54 and ZL33A with nucleobases typically involved addition of a solution containing 1-2 mol equiv of nucleobase in D2O, to an equilibrium solution of ZL01, ZL03, ZL04, ZL07, ZL25, ZL33, ZL37, ZL38, ZL43, ZL54 and ZL33A in a solution of 5% MeOD-d4/95% D2O (v/v). ^1H NMR spectra of these solutions were recorded at 310 K after various time intervals.
Since DNA is a potential target site for transition metal anticancer complexes,^18 nucleobase binding reactions of compounds ZL01, ZL03, ZL04, ZL07, ZL25, ZL33, ZL33A, ZL37, ZL38, ZL43 and ZL54 with nucleobase models 9-ethylguanine (9-EtG) and 9-ethyladenine (9-EtA), were investigated. Solutions of ZL01, ZL03, ZL04, ZL07, ZL25, ZL33, ZL37, ZL38, ZL43 and ZL54 (1 mM) (containing an equilibrium mixture of these complexes and their respective aqua adducts) with 1 mol equivalent of 9-EtG or 9-EtA in D2O were prepared, and ^1H NMR spectra were recorded at different time intervals.

[3] = Aqua adduct formation of ZL33 at chloride levels of nucleus, cytoplasm and plasma (1H NMR); format: physicochemical; conditions: 1 mM in D2O, 310 K
Description: The effects of chloride concentrations typical of blood plasma (100 mM), cell cytoplasm (22.7 mM), and cell nucleus (4 mM) on the aqueous chemistry of ZL33 was investigated. ^1H NMR spectra of ZL33 (1 mM) were recorded within 10 min of sample preparation and after incubation at 310 K for 24 h (FIG. 4). […] (pH* 6.52) or in 22.7 mM [Cl] (pH* 6.72), and only 5% of ZL33A at 4 mM [Cl] (pH* 6.89) after 10 min. No significant change was observed after 24 h, see Table 2.

## Cc1c(C)c(-c2ccccc2)[c-](C)c1C.F[P-](F)(F)(F)(F)F.[Cl-].[Ir+3].c1cnc2c(c1)ccc1cccnc12 (stereo not shown) [ZL33, [(η^5-C5Me4C6H5)Ir(phen)Cl]PF6]
[1]; 10 min
  Reaction with 9-EtG, extent of adduct formation: 15% and 15.5%
[1]; 24 h
  Reaction with 9-EtG, extent of adduct formation: 42.2%
[2]
  Reaction with 9-EtA, extent of adduct formation: 0%
[3]; 4 mM NaCl, t = 10 min
  % aqua adduct of ZL33 (ZL33A): 5%
[3]; 4 mM NaCl, t = 24 h
  % aqua adduct of ZL33 (ZL33A): 5%
[3]; 22.7 mM NaCl, t = 24 h
  % aqua adduct of ZL33 (ZL33A): 0%
[3]; 100 mM NaCl, t = 24 h
  % aqua adduct of ZL33 (ZL33A): 0%
